In article PMC11436104 (Toxins, 2024):
Like-named read-outs stand apart in the source and are kept apart here. *1 amine or outer side, *2 acyl side, *3 side chain or, on linkers, in order; H or OH if unused. Where a SMILES comes first, the peptide text is derived from it. Bridges are numbered along the chain shown (N, C = ends). [ ]: non-standard residue; d: D form. Adda = CO[C@@H](Cc1ccccc1)[C@@H](C)/C=C(C)/C=C/[C@H](N[*:1])[C@H](C)C(=O)[*:2]; dAsp(3S-Me) = C[C@H](C(=O)[*:3])[C@@H](N[*:1])C(=O)[*:2]; d(γGlu) = O=C(O)[C@@H](CCC(=O)[*:2])N[*:1]; hTyr = N[C@@H](CCc1ccc(O)cc1)C(=O)O; NMeA = CN[C@@H](C)C(=O)O; NMeDha = C=C(NC)C(=O)O; CO = O=C([*:1])[*:2]

Experiments:
[1] = test system: U87-MG cells; experiment: Cytoskeleton immunostaining (microfilaments, microtubules), confocal microscopy; format: cell-based, human; details: 10 µM, 24 h
Experimental: (§1) To determine the influence of the CCPs on actin microfilament and microtubule organization, the cells were labeled with rhodamine-conjugated phalloidin (Molecular Probes, Cat. # R415), and mouse monoclonal anti-bovine α-tubulin antibodies (Molecular Probes Cat. # A11126) and secondary Alexa-488 goat anti-mouse IgG (Molecular Probes Cat. # A-11017), respectively. The cells (3000/well) were plated into 16-well plates (Culture Well Chambered Coverglass for Cell Culture; […].
(§2) The cells in all the experiments were exposed to the CCPs for an additional 24 h in the CO2 incubator at 37 °C in a 5% CO2 atmosphere before they were fixed.
(§3) Fixing and staining. The cells were washed in phosphate-buffered saline (PBS) and fixed in 3.7% paraformaldehyde in either PBS (37 °C, 30 min; for microfilaments, microtubules, nestin) or in ice-cold methanol (4 °C, 10 min; for GFAP, desmoplakin I+II). Then the cells were permeabilized in PBS containing 0.1% Triton X-100 (v/v; Merck, Germany) for 20 min and blocked in 4% bovine serum albumin (Sigma) at room temperature for 10 min. For desmoplakin I+II visualization, the cells were blocked in 10% fetal bovine serum (Sigma) for 60 min without cell permeabilization. Microfilaments were stained with rhodamine-conjugated phalloidin (1:40) for 30 min at room temperature. Microtubules were visualized by immunostaining using an anti-α-tubulin antibody overnight at 4 °C (1:200 in PBS containing Ca^2+, 0.1% [v/v] Tween-20) and the secondary antibodies labeled with Alexa-488 goat anti-mouse IgG (1:1000; 30 min at room temperature). Intermediate filaments were stained using anti-nestin (1:500; overnight at 4 °C) and anti-GFAP (1:500, overnight at 4 °C) antibodies. The anti-nestin-labeled cells were visualized using secondary antibodies labeled with Alexa-488 goat anti-mouse IgG and the anti-GFAP-labeled cells with Alexa-488 anti-rabbit IgG (1:1000 dilution, room temperature, 30 min). Desmoplakin I+II were stained with a mouse anti-desmoplakin I+II antibody (1:500 dilution; room temperature, 60 min) and visualized with Alexa-488 goat anti-mouse IgG (1:1000 dilution; room temperature, 30 min). The cell nuclei were stained with To-Pro-3 (Molecular Probes; 1:1000 dilution; room temperature, 30 min). After each step, the samples were washed three times with PBS. Finally, all the cell preparations were immersed in an antifade reagent (Prolong Gold; Molecular Probes) to prevent photobleaching.
(§4) Microscopy. […] The cell preparations were also examined under light microscopy (Eclipse TE 3000; Nikon, Japan), and the images were recorded under phase contrast and epifluorescence (i.e., B-2A and G-2A filters, respectively).

[2] = test system: NHAs; experiment: as above; format: cell-based, human; details: 10 µM, 24 h
Experimental: as §1, §2, §3, §4

[3] = test system: U87-MG cells; experiment: Intermediate filament immunostaining (nestin, GFAP), confocal microscopy; format: cell-based, human
Experimental: (§5) For the intermediate filaments, visualization at 1 µM MC-LR was used as the positive control. The cells were stained with rabbit monoclonal anti-GFAP (Merck Millipore, Bedford, MA, USA, Cat. # AB5804) and secondary Alexa-488 goat anti-rabbit IgG (Molecular Probes, Cat. # A-11034) antibodies and with mouse monoclonal anti-nestin (Merck Millipore, Cat. # MAB5326) and secondary Alexa-488 goat anti-mouse IgG (Molecular Probes, Cat. # A-11017) antibodies.
as §2, §3, §4

[4] = Insertion into lipid monolayer (Langmuir trough, surface pressure); format: physicochemical; details: for insertion kinetics into the lipid monolayer (surface pressure increase): 20 µM, initial pressure ~11 mN/m; for critical pressure of insertion: extrapolation to zero pressure variation (ΔΠ = 0), 20 µM CCP
Experimental: Lateral pressure measurements were carried out in a Langmuir trough (MicroTrough-S system; Kibron, Helsinki, Finland) at room temperature (25 °C) under constant stirring. The aqueous sub-phase was 500 µL 10 mM Hepes, 200 mM NaCl, and pH 7.5.
To create lipid monolayers, dioleylposphatidylcholine and cholesterol (70:30) were dissolved together in chloroform/methanol (2:1, v/v) and gently spread over the sub-phase. The desired initial surface pressure was obtained by changing the amounts of the lipid mixture applied to the air–water interface. After solvent evaporation (10 min), each CCP was separately injected through a hole that was connected to the sub-phase, at a final concentration in the Langmuir trough of 20 µM. The changes in surface pressure versus time were recorded until a stable signal was obtained. […] The increase in the surface pressure (∆Π) was plotted versus the initial pressure (Π0), and the critical pressures were determined using linear regression with Prism 5 software (GraphPad, Inc., La Jolla, CA, USA).

[5] = test system: NHAs; experiment: Cell morphology, light microscopy (phase contrast); format: cell-based, human; details: evident already at 1 µM, 24 h, 100× magnification
[6] = test system: NHAs; experiment: Intermediate filament immunostaining (nestin, GFAP), confocal microscopy; format: cell-based, human
Experimental: as §5, §2, §3, §4

[7] = test system: U87-MG cells; experiment: Cell morphology, light microscopy (phase contrast); format: cell-based, human

SMILES | microfilament (actin) organization [1] | insertion kinetics into the lipid monolayer (surface pressure increase) [4] | critical pressure of insertion [4] | morphological changes under light microscopy [5] | further results
CC[C@H](C)[C@@H]1NC(=O)[C@H](Cc2ccc(OC)cc2)N(C)C(=O)[C@H]([C@@H](C)O)N2C(=O)[C@H](CC[C@H]2O)NC(=O)[C@H](CC(C)C)NC(=O)[C@@H](NC(=O)[C@H](CCC(N)=O)NC(=O)[C@H](CCc2ccc(O)cc2)NC(=O)[C@@H](O)CO)[C@@H](C)OC1=O | aggregation of the cortical microfilaments along the basal membrane and degradation of the membrane ruffles | interacted rapidly with the monolayer | 34.2 mN/m | formation of twisted astrocytic outgrowths | microtubule organization [1]: the microtubules were reorganized and concentrated around the nucleus; microfilament and microtubule organization [2]: strong cytolytic effects on the NHAs, with the collapse of the microfilaments in the center of the cell; GFAP filament organization ([3]; U87-MG, 24 h): concentration of the GFAP filaments was observed along the entire cell body
C=C1C(=O)N[C@H](C)C(=O)N[C@@H](CC(C)C)C(=O)N[C@@H](C(=O)O)[C@H](C)C(=O)N[C@@H](CCCNC(=N)N)C(=O)N[C@@H](/C=C/C(C)=C/[C@H](C)[C@H](Cc2ccccc2)OC)[C@H](C)C(=O)N[C@@H](C(=O)O)CCC(=O)N1C [MC-LR, Microcystin-LR, reference compound] (R[Adda][d(γGlu)][NMeDha][dA]L[dAsp(3S-Me)]-OH; lactam N-7) |  |  |  |  | GFAP filament organization [3]: concentration of the GFAP filaments was observed along the entire cell body; nestin organization [6]: most intense nestin concentration; morphological changes under light microscopy [7]: loss of astrocytic domain organization, but also in a reduction in cell numbers
CC(C)[C@@H]1NC(=O)[C@H](NC(=O)N[C@@H](CCCNC(=N)N)C(=O)O)CCCCNC(=O)[C@H](Cc2ccccc2)NC(=O)[C@H](C)N(C)C(=O)[C@H](CCc2ccc(O)cc2)NC1=O [anabaenopeptin B] ({Arg-CO}-[dK]V[hTyr][NMeA]F; lactam 1-C) |  | interacted rapidly with the monolayer | 27.1 mN/m | formation of twisted astrocytic outgrowths | GFAP immunolabeling, cell shape ([6]; NHAs, 24 h): characteristic twisted outgrowths
CC[C@H](C)[C@@H]1NC(=O)[C@H](NC(=O)N[C@@H](CCCNC(=N)N)C(=O)O)CCCCNC(=O)[C@H](Cc2ccccc2)NC(=O)[C@H](C)N(C)C(=O)[C@H](CCc2ccc(O)cc2)NC1=O [anabaenopeptin F] ({Arg-CO}-[dK]I[hTyr][NMeA]F; lactam 1-C) | actin aggregation |  |  |  | 
